Where two headings read alike, the source gives them in different places. Some results are limits rather than exact numbers.

The test system of assay [1] is Candida albicans DSM 1386. Nature of the assay: Anti-fungal assay, NCCLS M27-A microtitre broth dilution. The assay is classed as cell-based. To be noted: MIC as a ratio of the rapamycin MIC; 37° C., 24 h. Here is the method:
(§1) The comparative anti-fungal activities of reference and test compounds were determined against pathogenic fungi Candida albicans DSM 5816, Candida albicans DSM 1386 and Candida glabrata DSM 11226. This was achieved using a microtitre plate adaption of the NCCLS Reference Method for Broth Dilution Antifungal Susceptibility Testing for Yeasts: Approved Standard (M27-A, vol. 17 No. 9. (1997)). Yeast strains were inoculated (10^4 cfu/ml) to RPMI 1640 media containing […] MOPS, pH 7. Growth was determined in the presence of log scale dilutions of reference compounds, test compounds and media controls after incubation with shaking at 37° C., 24 h. Minimum inhibitory concentration (MIC) and minimum fungicidal activity (MFC) were determined for test compounds and expressed as a ratio of the rapamycin minimum inhibitory concentration (rMIC respectively), see Table XV.
Background: Dilution methods test growth across graded concentrations, often in twofold steps.

Assay [2] has as its system Candida glabrata DSM 11226. Described as above. The assay is classed as cell-based. As to conditions: MIC as a ratio of the rapamycin MIC; 37° C., 24 h. On the procedure: as §1
Assay [3] concerns Candida albicans DSM 5816. The assay is described as above. To be noted: MIC as a ratio of the rapamycin MIC; 37° C., 24 h. The format is cell-based. On the procedure:
as §1

A further assay concerns MCF-7 (breast). Nature of the assay: MTT growth inhibition assay, MCF-7 (breast) tumour cell line. The assay is classed as cell-based, human. To be noted: MCF-7 cell line, 72 h; for IC50: concentration giving 50% of maximum inhibition, read-out: IC50 (row head: MCF-7 rIC50). On the procedure: (§2) Growth inhibition of adherent human tumour cell lines of solid malignancies HT29 (colon) and MCF-7 (breast) was tested in vitro using an MTT (3-(4,5-dimethylthiazol-2-yl)-2,5-diphenyltetrazolium bromide) assay using micro-titre plates (Sieuwerts, A. M., et al., 1995). All cell lines were obtained from either the ATCC (American Type Culture Collection) or ECACC (European Collection of Cell Cultures). All cell lines were grown from frozen stocks and passaged at least once prior to use in RPMI 1640. Cells were harvested from sub-confluent cultures using minimal trypsinization. Cells were diluted to the appropriate density for each cell line (dependent on cell doubling time) in RPMI 1640, and seeded in 60 wells of a 96 well plate in a volume of 100 μl per well (i.e. outside wells of the plate were not used). Plates were incubated at 37° C. overnight. Following this incubation, log scale dilutions of reference and test substances were added in 100 μl per well, 6 replicates were used to test all test compounds, reference compounds and medium controls. Plates were incubated for a further 72 h prior to analysis. MTT (5 mg/ml) was added to each well and plates were re-incubated for 3-4 h. Unreacted MTT was removed from the wells and formazan crystals formed from the MTT were dissolved in DMSO and characteristic absorbance read at 570 nm.

The test system of a further assay is HT29 (colon). Nature of the assay: MTT growth inhibition assay, HT29 (colon) tumour cell line. The assay is classed as cell-based, human. As to conditions: for IC50: concentration giving 50% of maximum inhibition, read-out: IC50 (row head: HT29 rIC50). Here is the method:
as §2

For assay [4], the system named is splenic lymphocytes isolated from C57BL/6 mice. As to the kind of experiment: Mixed lymphocyte reaction (MLR), [3H] thymidine incorporation. As to conditions: IC50 quoted as a ratio of the rapamycin IC50; 72 h, 37° C. The format is cell-based. On the procedure: Originally developed to assess tissue compatibility prior to allografts, MLR offers an established model for immune reaction in vitro (SOULILLOU, J. P., et al. (1975); T. Meo. “Immunological Methods”, L. Lefkovits and B. Pernis, Eds., Academic Press, N.Y. pp. 227-239 (1979). MLR was performed by mixing splenic lymphocytes isolated from C57BL/6 mice (5×10^5 cells) with inhibited splenic lymphocytes from CBA mice (2.5×10^5 cells). The inhibited CBA lymphocytes induced a proliferative response in C57BU6 lymphocytes and this was determined by [^3H] thymidine incorporation into DNA as a measure of proliferation of splenic lymphocytes isolated from C57BU6 mice. The anti-proliferative effect was assayed for in the presence of log scale dilutions of reference compounds, test compounds and media controls over a 72 h period at 37° C. The concentration of each test compound and reference compound, which inhibited lymphocyte proliferation by 50% (IC50), compared to control proliferation, was calculated for each cell line and quoted as a ratio of the concentration of rapamycin required to inhibit lymphocyte proliferation by 50% (rIC50), see Table XIV.
(Dividing cells build labelled thymidine or BrdU into new DNA.)

The conditions of assay [5]: compared to rapamycin; Wong et al., 1998; cited from earlier work.
Assay [6] relates to mixed lymphocyte reaction. As to conditions: Nishida et al., 1995; cited from earlier work.
The conditions of assay [7]: compared to rapamycin; Khaw et al., 1998; cited from earlier work.
The test system of a further assay is murine splenic T cells. To be noted: compared to rapamycin; Box et al., 1995; cited from earlier work.
In a further assay the target is FKBP12 (Homo sapiens, UniProt P62942). As to conditions: compared to rapamycin; Box et al., 1995; cited from earlier work.
In another assay the test system is murine splenic B cells. As to conditions: compared to rapamycin; Box et al., 1995; cited from earlier work.
The conditions of assay [8]: compared to rapamycin; Box et al., 1995; cited from earlier work.

Sequence of FKBP12 (P62942 whole entry): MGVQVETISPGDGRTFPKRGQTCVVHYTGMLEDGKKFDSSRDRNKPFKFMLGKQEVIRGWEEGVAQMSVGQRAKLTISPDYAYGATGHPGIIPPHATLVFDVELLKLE

Consider `CO[C@@H]1C[C@H](C[C@@H](C)[C@@H]2CC(=O)[C@H](C)/C=C(\C)[C@@H](O)[C@@H](O)C(=O)[C@H](C)C[C@H](C)/C=C/C=C/C=C(\C)[C@@H](O)C[C@@H]3CC[C@@H](C)[C@](O)(CC(=O)N4CCCC[C@H]4C(=O)O2)O3)CC[C@H]1O` [Compound 9, 9-deoxo-16-O-desmethyl-27-O-desmethyl-rapamycin], for which the “C. albicans DSM 1386 rMIC” value in [1] is 1. Moreover, the “C. glabrata DSM 11226 rMIC” value in assay [2] came out at 1. Moreover, in [3], the “C. albicans DSM 5816 rMIC” value was found to be 1. For the same compound, the “Im (maximum percentage of inhibition observed)” value in the assay with MCF-7 (breast) stood at 40%; in the assay on HT29 (colon) (72 h) it was 35%. Moreover, the IC50 (as a rule, the concentration needed to halve the response being measured) in the assay with MCF-7 (breast) came to 17.8 nM; in the assay with HT29 (colon) (72 h) it was 12.6 nM. In assay [4], the “MLR rIC50” value is 6.5.
For `COC1CC2CCC(C)C(O)(O2)C(=O)C(=O)N2CCCC2C(=O)OC(C(C)CC2CCC(O)C(OC)C2)CC(=O)C(C)/C=C(\C)C(O)C(OC)C(=O)C(C)CC(C)/C=C/C=C/C=C/1C` (stereo not shown) [prolylrapamycin, reference compound], the antifungal activities entry in assay [5] was “lower than that of rapamycin”.
On to 27-desmethoxy-rapamycin [Compound 22], for which the antifungal activities entry in assay [5] was “lower than that of rapamycin”.
For the compound `CO[C@H]1C[C@@H]2CC[C@@H](C)[C@](O)(CC(=O)N3CCCC[C@H]3C(=O)O[C@H]([C@H](C)C[C@@H]3CC[C@@H](O)[C@H](OC)C3)CC(=O)[C@H](C)/C=C(\C)[C@@H](O)[C@@H](OC)C(=O)[C@H](C)C[C@H](C)/C=C/C=C/C=C/1C)O2` [Compound 19, 9-deoxo-rapamycin], the “mixed lymphocyte reaction (MLR) inhibitory activity” value in [6] was “more significant decrease in activity”.
Take `CO[C@H]1C[C@@H]2CC[C@@H](C)[C@](O)(CC(=O)N3CCCC[C@H]3C(=O)O[C@H]([C@H](C)C[C@@H]3CC[C@@H](O)[C@H](O)C3)CC(=O)[C@H](C)/C=C(\C)[C@@H](O)[C@@H](O)C(=O)[C@H](C)C[C@H](C)/C=C/C=C/C=C/1C)O2` [Compound 8, 9-deoxo-27-O-desmethyl-39-O-desmethyl-rapamycin]: the “C. albicans DSM 1386 rMIC” value in assay [1] was determined as 1. Also, the “C. glabrata DSM 11226 rMIC” value in [2] was 1. The “C. albicans DSM 5816 rMIC” value in [3] worked out at 1. In the assay on MCF-7 (breast), the “Im (maximum percentage of inhibition observed)” value is recorded as 38% and the IC50 came out at 20 nM. For the same compound, in the assay with HT29 (colon) (72 h), the “Im (maximum percentage of inhibition observed)” value worked out at 30% and the 50% inhibitory concentration (IC50) is 63 nM. The “MLR rIC50” value in assay [4] amounted to 4.1.
For `COC1CC2CCC(C)C(O)(CC(=O)N3CCCCC3C(=O)OC(C(C)CC3CCC(O)C(OC)C3)CC(=O)C(C)C=C(C)C(O)CC(=O)C(C)CC(C)C=CC=CC=C1C)O2` (stereo not shown) [Compound 16, 9-deoxo-27-desmethoxy-rapamycin], in assay [1], the “C. albicans DSM 1386 rMIC” value is recorded as 5. Besides, the “C. glabrata DSM 11226 rMIC” value in assay [2] was determined as 5. Moreover, in assay [3], the “C. albicans DSM 5816 rMIC” value is reported as 1. In addition, in the assay with MCF-7 (breast), the “Im (maximum percentage of inhibition observed)” value is given as 32% and the IC50 was determined as 2 nM. Besides, in the assay with HT29 (colon) (72 h), the “Im (maximum percentage of inhibition observed)” value is on record as 25% and the IC50 was determined as 15.8 nM. Further, in assay [4], the “MLR rIC50” value is recorded as more than 14.7.
On to `CO[C@H]1C[C@@H]2CC[C@@H](C)[C@@](O)(O2)C(=O)C(=O)N2CCCC[C@H]2C(=O)O[C@H]([C@H](C)C[C@@H]2CC[C@@H](O)[C@H](OC)C2)CC(=O)[C@H](C)/C=C(\C)[C@@H](O)[C@@H](OC)C(=O)[C@H](C)C[C@H](C)/C=C/C=C/C=C/1C` [rapamycin, reference compound], for which the IC50 came to 0.03 nM with MCF-7 (breast) (Homo sapiens, MCF7) and 200 nM with HT29 (colon) (Homo sapiens, HT-29, 72 h). Further, the “Im (maximum percentage of inhibition observed)” value in the assay on MCF-7 (breast) amounted to 56%; with HT29 (colon) (72 h), 40%.
Take `CC1=CC(C)C(=O)CC(C(C)CC2CCC(O)C(O)C2)OC(=O)C2CCCCN2C(=O)C(=O)C2(O)OC(CCC2C)CC(O)C(C)=CC=CC=CC(C)CC(C)C(=O)CC1O` (stereo not shown) [Compound 3, 16-O-desmethyl-27-desmethoxy-39-O-desmethyl-rapamycin]: in [1], the “C. albicans DSM 1386 rMIC” value is reported as 1. The “C. glabrata DSM 11226 rMIC” value in assay [2] turned out to be 1. In addition, the “C. albicans DSM 5816 rMIC” value in assay [3] is 1. In the assay with MCF-7 (breast), the “Im (maximum percentage of inhibition observed)” value stood at 38% and the IC50 came to 20 nM. Also, in the assay on HT29 (colon) (72 h), the “Im (maximum percentage of inhibition observed)” value is given as 37% and the IC50 amounted to 63.1 nM. In addition, the “MLR rIC50” value in assay [4] turned out to be 7.9.
With 4-hydroxyprolyl-26-desmethoxy-rapamycin, in [7], the “inhibitory activity in proliferation assays” value is listed as “significantly less than that of rapamycin”.
With `CO[C@H]1C[C@@H]2CC[C@@H](C)[C@@](O)(O2)C(=O)C(=O)N2CCCC[C@H]2C(=O)O[C@H]([C@H](C)C[C@@H]2CC[C@@H](O)[C@H](OC)C2)CC(=O)[C@H](C)/C=C(\C)[C@@H](O)[C@@H](O)C(=O)[C@H](C)C[C@H](C)/C=C/C=C/C=C/1C` [Compound 21, 27-O-desmethyl-rapamycin], in the assay on murine splenic T cells, the “inhibition of ConA-stimulated proliferation of murine splenic T cells” value was “decreased when compared to rapamycin”. Besides, the antifungal activities entry in assay [5] is listed as “lower than that of rapamycin”. The “inhibition of FKBP12 PPlase activity” value at FKBP12 was “seemed to be increased”. Moreover, the “inhibition of LPS-stimulated proliferation of murine splenic B cells” value in the assay with murine splenic B cells was “decreased when compared to rapamycin”. In addition, the antifungal activity result in assay [8] is on record as “lower than that of rapamycin”.
As for `CC1=CC(C)C(=O)CC(C(C)CC2CCC(O)C(O)C2)OC(=O)C2CCCCN2C(=O)CC2(O)OC(CCC2C)CC(O)C(C)=CC=CC=CC(C)CC(C)C(=O)CC1O` (stereo not shown) [Compound 1, 9-deoxo-16-O-desmethyl-27-desmethoxy-39-O-desmethyl-rapamycin], the “C. albicans DSM 1386 rMIC” value in [1] was 5. In assay [2], the “C. glabrata DSM 11226 rMIC” value was 5. For the same compound, the “C. albicans DSM 5816 rMIC” value in [3] is on record as 1. In addition, in the assay on MCF-7 (breast), the “Im (maximum percentage of inhibition observed)” value turned out to be 38% and the IC50 is 3.2 nM. In the assay on HT29 (colon) (72 h), the “Im (maximum percentage of inhibition observed)” value is recorded as 38% and the IC50 worked out at 50.1 nM. The “MLR rIC50” value in assay [4] was 9.4.
As for `CO[C@@H]1C[C@H](C[C@@H](C)[C@@H]2CC(=O)[C@H](C)/C=C(\C)[C@@H](O)CC(=O)[C@H](C)C[C@H](C)/C=C/C=C/C=C(\C)[C@@H](O)C[C@@H]3CC[C@@H](C)[C@](O)(CC(=O)N4CCCC[C@H]4C(=O)O2)O3)CC[C@H]1O` [Compound 6, 9-deoxo-16-O-desmethyl-27-desmethoxy-rapamycin], the “C. albicans DSM 1386 rMIC” value in assay [1] is listed as 5. Also, the “C. glabrata DSM 11226 rMIC” value in assay [2] worked out at 5. In addition, the “C. albicans DSM 5816 rMIC” value in assay [3] is 1. In the assay with MCF-7 (breast), the “Im (maximum percentage of inhibition observed)” value was 48% and the IC50 stood at 126 nM. Moreover, in the assay with HT29 (colon) (72 h), the “Im (maximum percentage of inhibition observed)” value amounted to 38% and the IC50 turned out to be 25 nM. Also, the “MLR rIC50” value in assay [4] is listed as 8.8.

Values taken from patent US9040259B2, “Production of polyketides and other natural products” (Buck Institute for Research on Aging, priority 2002, dated 2015).
